Earlier results, collected in PubChem BioAssay AID1259409 (Chemical Carcinogenesis Research Information System (CCRIS), 2018).

Tested on: rodent chemically induced tumor inhibition, incidence and multiplicity
Experiment: CCRIS tumor inhibitor studies

COc1cc(/C=C/C(=O)CC(=O)/C=C/c2ccc(O)c(OC)c2)ccc1O
tumour outcome (control, treated, inhibition, significance) (Carcinogen: 7,12-DIMETHYLBENZ[A]ANTHRACENE, 57-97-6, Dose [Inhibitor]: 10 UMOL IN MINERAL OIL APPLIED TO BUCCAL POUCH 3/WK BEGINNING 2 D AFTER LAST CARCINOGEN DOSE (STUDY DURATION: 24 WK), Route [Inhibitor]: MUCOUS MEMBRANE, Species: HAMSTER, Strain/Sex: SYRIAN/MALE, Target Tissue: Type of Lesion: BUCCAL POUCH: PAPILLOMA, Dose [Carcinogen]: 0.5% IN MINERAL OIL APPLIED TO BUCCAL POUCH 3'/WK FOR 6 WK, Promoter: NONE USED): 21/26 (80.7%), 20/26 (76.9%), 4.71%, not significant
tumour outcome (control, treated, inhibition, significance) (Carcinogen: 7,12-DIMETHYLBENZ[A]ANTHRACENE, 57-97-6, Dose [Inhibitor]: 10 UMOL IN MINERAL OIL APPLIED TO BUCCAL POUCH 3/WK BEGINNING 2 D AFTER LAST CARCINOGEN DOSE (STUDY DURATION: 24 WK), Route [Inhibitor]: MUCOUS MEMBRANE, Species: HAMSTER, Strain/Sex: SYRIAN/MALE, Target Tissue: Type of Lesion: BUCCAL POUCH: SQUAMOUS CELL CARCINOMA, Dose [Carcinogen]: 0.5% IN MINERAL OIL APPLIED TO BUCCAL POUCH 3'/WK FOR 6 WK, Promoter: NONE USED): 20/26 (76.9%), 13/26 (50%), 35%, p< 0.05
tumour outcome (control, treated, inhibition, significance) (Carcinogen: 7,12-DIMETHYLBENZ[A]ANTHRACENE, 57-97-6, Dose [Inhibitor]: 10 UMOL IN MINERAL OIL APPLIED TO BUCCAL POUCH 3/WK BEGINNING 2 D AFTER LAST CARCINOGEN DOSE (STUDY DURATION: 24 WK), Route [Inhibitor]: MUCOUS MEMBRANE, Species: HAMSTER, Strain/Sex: SYRIAN/MALE, Target Tissue: Type of Lesion: BUCCAL POUCH: TUMOR, Dose [Carcinogen]: 0.5% IN MINERAL OIL APPLIED TO BUCCAL POUCH 3'/WK FOR 6 WK, Promoter: NONE USED): 24/26 (92.3%), 20/26 (76.9%), 16.7%, not significant
tumour outcome (control, treated, inhibition, significance) (Carcinogen: 7,12-Dimethylbenzanthracene, 57-97-6, Dose [Inhibitor]: 1% as turmeric (equivalent to 0.05% curcumin) in diet, starting 15 d before carcinogen application to 12 wks after carci, Route [Inhibitor]: Diet, Species: Hamster, Strain/Sex: Syrian golden/Male, Target Tissue: Type of Lesion: Buccal (oral) tissues: Tumor, Dose [Carcinogen]: 0.5% in 0.1 ml oil 3 x wk for 12 wk, study duration 12 wk, Promoter: None): 100%, 55%, 45% at 12 wks (from table)
tumour outcome (control, treated, inhibition, significance) (Carcinogen: AZOXYMETHANE, 25843-45-2, Dose [Inhibitor]: 0, 0.5% COMMERCIAL GRADE CURCUMIN IN DIET FOR 35 WK BEGINNING 2 WK PRIOR TO CARCINOGEN TREATMENT (STUDY DURATION: 35 WK), Route [Inhibitor]: ORAL, Species: MOUSE, Strain/Sex: CF-1/FEMALE, Target Tissue: Type of Lesion: COLON: ADENOCARCINOMA, Dose [Carcinogen]: 10 MG/KG BW IN 100 µL NORMAL SALINE 1/WK FOR 6 WK, Promoter: NONE USED): 40%, 22%, 45%, not significant
tumour outcome (control, treated, inhibition, significance) (Carcinogen: AZOXYMETHANE, 25843-45-2, Dose [Inhibitor]: 0, 0.5% COMMERCIAL GRADE CURCUMIN IN DIET FOR 35 WK BEGINNING 2 WK PRIOR TO CARCINOGEN TREATMENT (STUDY DURATION: 35 WK), Route [Inhibitor]: ORAL, Species: MOUSE, Strain/Sex: CF-1/FEMALE, Target Tissue: Type of Lesion: COLON: ADENOMA, Dose [Carcinogen]: 10 MG/KG BW IN 100 µL NORMAL SALINE 1/WK FOR 6 WK, Promoter: NONE USED): 93%, 69%, 26%, not significant
tumour outcome (control, treated, inhibition, significance) (Carcinogen: AZOXYMETHANE, 25843-45-2, Dose [Inhibitor]: 0, 2% COMMERCIAL GRADE CURCUMIN IN DIET FOR 9 WK BEGINNING 2 WK PRIOR TO CARCINOGEN TREATMENT (STUDY DURATION: 35 WK), Route [Inhibitor]: ORAL, Species: MOUSE, Strain/Sex: CF-1/FEMALE, Target Tissue: Type of Lesion: COLON: ADENOCARCINOMA, Dose [Carcinogen]: 10 MG/KG BW IN 100 µL NORMAL SALINE 1/WK FOR 6 WK, Promoter: NONE USED): 40%, 9%, 78%, not significant
tumour outcome (control, treated, inhibition, significance) (Carcinogen: AZOXYMETHANE, 25843-45-2, Dose [Inhibitor]: 0, 2% COMMERCIAL GRADE CURCUMIN IN DIET FOR 9 WK BEGINNING 2 WK PRIOR TO CARCINOGEN TREATMENT (STUDY DURATION: 35 WK), Route [Inhibitor]: ORAL, Species: MOUSE, Strain/Sex: CF-1/FEMALE, Target Tissue: Type of Lesion: COLON: ADENOMA, Dose [Carcinogen]: 10 MG/KG BW IN 100 µL NORMAL SALINE 1/WK FOR 6 WK, Promoter: NONE USED): 93%, 61%, 34%, not significant
tumour outcome (control, treated, inhibition, significance) (Carcinogen: AZOXYMETHANE, 25843-45-2, Dose [Inhibitor]: 0, 2% COMMERCIAL GRADE CURCUMIN IN DIET FOR 26 WK BEGINNING 1 WK POST CARCINOGEN TREATMENT (STUDY DURATION: 35 WK), Route [Inhibitor]: ORAL, Species: MOUSE, Strain/Sex: CF-1/FEMALE, Target Tissue: Type of Lesion: COLON: ADENOCARCINOMA, Dose [Carcinogen]: 10 MG/KG BW IN 100 µL NORMAL SALINE 1/WK FOR 6 WK, Promoter: NONE USED): 40%, 24%, 40%, not significant
tumour outcome (control, treated, inhibition, significance) (Carcinogen: AZOXYMETHANE, 25843-45-2, Dose [Inhibitor]: 0, 2% COMMERCIAL GRADE CURCUMIN IN DIET FOR 26 WK BEGINNING 1 WK POST CARCINOGEN TREATMENT (STUDY DURATION: 35 WK), Route [Inhibitor]: ORAL, Species: MOUSE, Strain/Sex: CF-1/FEMALE, Target Tissue: Type of Lesion: COLON: ADENOMA, Dose [Carcinogen]: 10 MG/KG BW IN 100 µL NORMAL SALINE 1/WK FOR 6 WK, Promoter: NONE USED): 93%, 85%, 9%, not significant
tumour outcome (control, treated, inhibition, significance) (Carcinogen: AZOXYMETHANE, 25843-45-2, Dose [Inhibitor]: 0, 2% COMMERCIAL GRADE CURCUMIN IN DIET FOR 35 WK BEGINNING 2 WK PRIOR TO CARCINOGEN TREATMENT (STUDY DURATION: 35 WK), Route [Inhibitor]: ORAL, Species: MOUSE, Strain/Sex: CF-1/FEMALE, Target Tissue: Type of Lesion: COLON: ADENOCARCINOMA, Dose [Carcinogen]: 10 MG/KG BW IN 100 µL NORMAL SALINE 1/WK FOR 6 WK, Promoter: NONE USED): 40%, 0%, 100%, not significant
tumour outcome (control, treated, inhibition, significance) (Carcinogen: AZOXYMETHANE, 25843-45-2, Dose [Inhibitor]: 0, 2% COMMERCIAL GRADE CURCUMIN IN DIET FOR 35 WK BEGINNING 2 WK PRIOR TO CARCINOGEN TREATMENT (STUDY DURATION: 35 WK), Route [Inhibitor]: ORAL, Species: MOUSE, Strain/Sex: CF-1/FEMALE, Target Tissue: Type of Lesion: COLON: ADENOMA, Dose [Carcinogen]: 10 MG/KG BW IN 100 µL NORMAL SALINE 1/WK FOR 6 WK, Promoter: NONE USED): 93%, 68%, 27%, not significant
tumour outcome (control, treated, inhibition, significance) (Carcinogen: AZOXYMETHANE, 25843-45-2, Dose [Inhibitor]: 0, 2% PURE CURCUMIN IN DIET FOR 35 WK BEGINNING 2 WK PRIOR TO CARCINOGEN TREATMENT (STUDY DURATION: 35 WK), Route [Inhibitor]: ORAL, Species: MOUSE, Strain/Sex: CF-1/FEMALE, Target Tissue: Type of Lesion: COLON: ADENOCARCINOMA, Dose [Carcinogen]: 10 MG/KG BW IN 100 µL NORMAL SALINE 1/WK FOR 6 WK, Promoter: NONE USED): 40%, 14%, 65%, not significant
tumour outcome (control, treated, inhibition, significance) (Carcinogen: AZOXYMETHANE, 25843-45-2, Dose [Inhibitor]: 0, 2% PURE CURCUMIN IN DIET FOR 35 WK BEGINNING 2 WK PRIOR TO CARCINOGEN TREATMENT (STUDY DURATION: 35 WK), Route [Inhibitor]: ORAL, Species: MOUSE, Strain/Sex: CF-1/FEMALE, Target Tissue: Type of Lesion: COLON: ADENOMA, Dose [Carcinogen]: 10 MG/KG BW IN 100 µL NORMAL SALINE 1/WK FOR 6 WK, Promoter: NONE USED): 93%, 62%, 33%, not significant
